According to patent publication US20180325947A1, “USE OF MAPK INHIBITORS TO REDUCE LOSS OF HEMATOPOIETIC STEM CELLS DURING EX VIVO CULTURE AND/OR GENETIC MANIPULATION” (Children's Hospital Medical Center, priority 2015, published 2018):

System: human CD34+ 38- 90+ HSC enriched population
Assay: DNA damage response (gamma-H2AX, 53BP1) by immunofluorescence and flow cytometry
Format: cell-based
Protocol: Human MPB derived CD34^+ cells were cultured and transduced with lentivirus (LV) or retrovirus (RV) for the indicated time points. Representative Immunofluorescence images of sorted human CD34^+ 38^− 90^+ population treated with or without p38i for 72 hours stained with anti-γH2AX and 53BP1 (Panel A) and quantification of γ-H2AX (Panel B) and 53BP1 (Panel C) MFI/cell. Panel D: Representative histogram plot from flow cytometric analysis of CD34^+ 38^− 90^+ HSC enriched cells stained for γ-H2AX with or without p38 inhibitor (p38i) and quantification of fold change in mean fluorescence intensity (MFI) of γ-H2AX in HSCs (Panel E) and percent GH2AX^+ cells (Panel F) at indicated time period. Percentage shown in histograms are cells positive for γH2AX and the numbers below is mean fluorescent intensity (MFI) (n=5 independent experiments). FACS plot representing HSCs in G0 (Quiescent), G1, and S-G2-M phase of cell cycle with or without p38i (Panel G) and quantification (Panel H) of HSC enriched population at different cell cycle phase at indicated time of ex vivo culture. Percentage of (±SEM) Ki67^− (G0) and Ki67^+ (G1-S-G2-M) HSCs is depicted on the y-axis. (n=4 independent experiments for 24 h LV and n=5 independent experiments for 42 h LV and 72 h RV)). Statistics: paired Student's t test, *p<0.05, **p<0.01, ***p<0.001.
Human MPB derived CD34^+ cells were cultured and transduced as described in FIG. 17. Panel A: Quantification of γ-H2AX^+ CD34^+ 38^− 90^+ cells at 24, 42, & 72 hours. n=5-8 independent experiments/condition). Panel B: Quantification of immunofluorescence analysis for γ-H2AX (left) and 53BP1 (right) MFI per sorted human CD34^+ 38^− 90^+ cell with or without p38i for 42 hours. Panel C: Quantitative plot representing CD34^+ 38^− 90^+ cells in G0-G1, and S-G2-M phase of cell cycle with or without p38i at 42 hours of ex vivo culture and lentivirus (LV) transduction. (n=6 independent experiments/condition). Statistics: paired Student's t test, *p<0.05, **p<0.01, ***p<0.001. Statistics: Student's t test, *p<0.05, **p<0.01, ***p<[…].
Human BM derived CD34 cells were cultured and transduced with lentivirus (LV) for 48 hours. Representative FACS plot representing bone marrow derived HSC enriched CD34^+ 38^− 90^+ population in G0 (Quiescent), G1, and S-G2-M phase of cell cycle with or without p38i (left) and the corresponding representative histogram plot of γH2AX at indicated time and treatment. Percentage shown in histogram refers to cells positive for γH2AX and the numbers below is mean fluorescent intensity (MFI).
p38 inhibition maintains the quiescent phase of HSCs and reduces DNA damage response (DDR) early in culture. Cell cycle entry and gene manipulation induces a DDR in human HSCs that is reduced by inhibiting p38MAPK early in culture. DNA double-strand breaks in Human HSCs were assessed by γ-H2AX staining, a sensitive and specific indicator of DNA double-strand breaks.

Cc1ccc(-n2nc(C(C)(C)C)cc2NC(=O)Nc2ccc(OCCN3CCOCC3)c3ccccc23)cc1 [BIRB-796, 1-[5-tert-butyl-2-(4-methylphenyl)pyrazol-3-yl]-3-[4-(2-morpholin-4-ylethoxy)naphthalen-1-yl]urea]
percentage of γH2AX+ cells (36-42 h and 72-96 h groups): significantly reduced
γH2AX staining (24 hours of culture, flow cytometry): returned to levels seen in unmanipulated HSC
DNA Damage Response (DDR) (MPB derived CD34+ 38- 90+ cells, ex vivo culture and gene transfer): reduces
DNA Damage Response (DDR) (bone marrow (BM) derived CD34+ 38- 90+ cells, LV 48 hours): reduces
γH2AX foci (DNA damage response) (cultured and transduced for 36-42 hours or 72 hours): rescued
